Experimental data from patent US9056923B2, “Mimetic peptides derived from collagen type IV and their use for treating angiogenesis- and lymphagiogenesis-dependent diseases” (THE JOHNS HOPKINS UNIVERSITY, priority 2010, dated 2015).
Where two headings read alike, the source gives them in different places. Square brackets hold non-standard residues; d marks the D form. Ends that are not written are not given here. Peptide text beside a SMILES is read from it. Abu = CC[C@H](N)C(=O)O

Key:
HUVEC [1] = type: cell-based, human; settings: for Adhesion Inhibition (100 uM): 100 uM peptide; for Activity in Adhesion: Yes/No summary, active = inhibitory potential greater than 30%
Description: Similar to the migration assays, the inhibition activity of the peptide in cellular adhesion was assessed using the RT-CIM technology. In this case, 25,000 cells/well were plated in 16 wells E-plates (Roche, Basel Switzerland) in the presence or absence of the peptide. The adhesion was monitored over time (3 hours) by measuring changes in the electrical impedance, which is a direct measure of the cells adhering on the electrodes. […] Assays were performed in at least two independent replicates and each replicate was performed using two experimental duplicates.

MDA-MB-231 xenograft = test: MDA-MB-231 orthotopic breast tumor xenograft; type: in vivo, SCID mice; settings: for MDA-MB-231 xenograft inhibition: mice
Description: For primary tumor inhibition studies, 1−2×10^6 tumor cells were injected into 4-6 wk old female SCID mice. After the tumors reached a size of 100 mm^3 the animals were randomized into groups of 10 animals each. The animals were treated with vehicle, SP2012, SP2000, or SP2024. The peptides were administered subcutaneously daily. Dosing was continued for 3 or 4 weeks and tumor sizes were measured every 3 days using calipers. The tumor volume was estimated using the formula V=a^2b/2 where a and b are the smaller and larger diameters.
For the tumor xenograft assay, animals were housed and treated according to the approved animal protocol of the Institutional Care and Use Committee at Johns Hopkins Medical Institution (JHMI). Orthotopic breast tumors were initiated in SCID mice using MDA-MB-231 cells. 2×10^6 cells per 100 μL aliquot of single cell suspension were injected in the breast mannary fat pad. Tumors reached volumes of 75 mm^3 to 100 mm^3 in approximately 14-21 days. Mice were randomized and arranged in groups (8 mice per group) with similar tumor volumes (no statistical difference among averages) and treatment was commenced. Peptides were administered once per day intraperitoneally (i.p.) at doses of 10 mg/kg (subcutaneous delivery was also tested with certain peptides). Paclitaxel was administered at 5 mg/kg once a week, and to maintain the daily treatment regime PBS was administered on the non-treatment days. Tumors were measured every fourth day using calipers and the tumor volume was calculated using the formula V=ab^2/2, where a is the larger diameter and b is the smaller diameter.

HUVEC [2] = test: HUVEC migration assay (RT-CIM); type: cell-based, human; settings: for Migration Inhibition (50 uM): 50 uM peptide; for Activity in Migration: Yes/No summary, active = inhibitory potential greater than 30%; for inhibition of migration: concentration not given
Description: The inhibitory potential of the peptides was measured using a real time migration assay system based on electrical impedance (RT-CIM, ACEA Biosciences, CA). CIM 16 well plates (Roche, 05665817001) are composed of a top and bottom chamber separated by a microporous (8 μm) polycarbonate membrane. The membrane was coated with fibronectin (20 μg/mL), and 45,000 cells/well in serum free media with or without peptides were added to the top compartment. Media with chemoattractant (i.e., fully supplemented EBM-2) was added to the bottom compartment of the chamber and the plate was incubated at 37° C. for 20 hours. The sensors integrated on the bottom side of the membrane monitor and continuously record changes in impedance as the cells move through the membrane. The RT-CIM technology allows for easy quantification of cell migration by monitoring the cell index derived from the measured impedances. Assays were performed in at least two independent replicates and each replicate was performed using two experimental duplicates.

HUVEC [3] = type: cell-based, human; settings: for Activity in Proliferation: Yes/No summary
Description: Several assays were used to test the peptides discussed in the Examples herein. A colorimetric based proliferation assay using WST-1 (Roche, 11644807001) proliferation reagent was carried out using HUVEC cells. 2000 cells/well were plated in 96-well plates and allowed to adhere overnight. On the following day, the media was exchanged with fully supplemented media containing peptides or equivalent DMSO vehicle for the controls. Three days later the media containing the peptides was replaced with serum-free EBM-2 media containing WST-1 reagent and the plates were incubated for four hours as per the manufacturer's recommendations. Changes in color, due to the formazan dye resulted from the cleavage of the tetrazolium salt WST-1 by the mitochondrial succinate-tetrazolium reductase, were read on a Victor V fluorescence plate reader (Perkin Elmer, MA) by measuring the absorbance at 450 nm Dose response curves of percent live cells (in comparison to untreated cells but incubated in complete media with 0.2% DMSO) were created. Assays were performed in at least two independent replicates and each replicate was performed using three experimental triplicates.

HUVEC [4] = test: HUVEC tube formation assay on Matrigel; type: cell-based, human; settings: for Tube formation Inhibition (100 uM): 100 uM peptide; for Activity in Tube formation: Yes/No summary
Description: The compounds also were tested for their ability to inhibit tube formation, a process critical in angiogenesis. Endothelial cells spontaneously form a network of tubes when plated on extracts of extracellular matrix. This in vitro assay combines aspects of adhesion and migration and it is routinely used in angiogenesis research (Oliveira-Ferrer et al., 2008). The ability to inhibit tube formation is a comprehensive assessment of the anti-angiogenic potential. The protocol was described by Arnaoutova et al. (2009) and it consists of plating HUVEC on top of basement membrane extract and after incubation at 37° C. the cells naturally rearrange themselves in a network of tubes. Thus, 50 μL/well of Matrigel (BD Biosciences, San Jose, Calif.) was plated in a cold 96 well plate and incubated at 37° C. for 30 min for polymerization. 15,000 cells/well were added to the top of the gel and incubated in complete media in the presence or absence of peptide for 19 hours. Images were captured using the CCD Sensicam mounted on a Nikon microscope (Eclipse T-100). Assays were performed in at least two independent replicates and each replicate was performed using three experimental replicates and one image of a randomly chosen field was acquired per well.

[5] = system: choroidal neovascularization; test: Laser-induced choroidal neovascularization model; type: in vivo, C57BL/6 mice; settings: 0.1 μg into a mouse eye
Description: The ocular laser-induced choroidal neovascularization (NV) model of wet age-related macular degeneration was used for testing. 5-6-week-old female pathogen-free C57BL/6 mice were anesthetized with ketamine hydrochloride (100 mg/kg body weight) and pupils were dilated. Laser photocoagulation (75-μm spot size, 0.1-sec duration, 120 mW) was performed in the 9, 12, and 3 o'clock positions of the posterior pole of each eye with the slit lamp delivery system of an OcuLight GL diode laser (Iridex, Mountain View, Calif.) and a handheld cover slip as a contact lens to view the retina. Production of a tissue bubble by the laser, which indicates rupture of Bruch's membrane, is an important factor in obtaining choroidal NV; therefore, only burns in which a bubble is produced are included in the study. […] At day 7 the mice that received the naked peptides were dosed again whereas the mice that received the particles were administered PBS. Intravitreous injections were done under a dissecting microscope with a Harvard Pump Microinjection System and pulled glass micropipettes. After 14 days, the mice were perfused with 1 mL of PBS containing 50 mg/mL of fluorescein-labeled dextran (2×10^6 Daltons average molecular weight; Sigma-Aldrich, St. Louis, Mo.) and choroidal flat mounts were examined by fluorescence microscopy. Images were captured with a Nikon Digital Still Camera DXM1200 (Nikon Instruments Inc., New York, N.Y.). Image analysis software (Image-Pro Plus; Media Cybernetics, Silver Spring, Md.) was used to measure the total area of choroidal NV at each rupture site with the investigator masked with respect to treatment group.

[6] = system: VEGF mediated retinal neovascularization; test: Rho/VEGF transgenic mice model of retinal neovascularization; type: in vivo; settings: 0.1 μg into a mouse eye
Description: The ocular Rho/VEGF transgenic mice model of wet age-related macular degeneration also was used to test some of the peptides. Transgenic mice in which the rhodopsin promoter drives expression of VEGF in photoreceptors have the onset of VEGF production at P7 and develop extensive NV along the outer surface of the retina by P21 (Okamoto et al., 1997; To be et al., 1998). Mice hemizygous for the transgene (n=15 for each dose) were given an intraocular injection of 1 μl of PBS containing 0.01, 0.1, or 1 μg of peptide or scramble peptide in one eye at P7 and P14 and at P21 the mice were anesthetized, perfused with fluorescein-labeled dextran, and the total area of neovascularization on the outer surface of the retina was measured on retinal flat mounts by image analysis as above.

CC[C@H](NC(=O)[C@H](Cc1ccccc1)NC(=O)[C@H](CCSC)NC(=O)[C@H](Cc1ccccc1)NC(=O)[C@@H]1CCCN1C(=O)[C@H](CCSC)NC(=O)[C@@H](NC(=O)[C@@H](N)CO)[C@@H](C)O)C(=O)N[C@@H](CC(N)=O)C(=O)N[C@H](C(=O)N[C@@H](CC(N)=O)C(=O)N[C@@H](CC(N)=O)C(=O)N[C@H](C(=O)N[C@@H](CC)C(=O)N[C@@H](CC(N)=O)C(=O)N[C@@H](Cc1ccccc1)C(=O)O)C(C)C)[C@@H](C)CC [SP2011, STMPFMFAbuNINNVAbuNF-OH] (H-STMPFMF[Abu]NINNV[Abu]NF-OH; N-terminus assumed)
Adhesion Inhibition (100 uM) (HUVEC [1]; HUVEC): 0% | Activity in Adhesion (HUVEC [1]; HUVEC): Yes | MDA-MB-231 xenograft inhibition (MDA-MB-231 xenograft): Active | Migration Inhibition (50 uM) (HUVEC [2]): Inactive | Activity in Migration (HUVEC [2]): No | inhibition of migration (HUVEC [2]): inactive in the migration assay | IC50 (HUVEC [3]): 51.4 µM | Activity in Proliferation (HUVEC [3]; HUVEC): No | Tube formation Inhibition (100 uM) (HUVEC [4]): Partial | Activity in Tube formation (HUVEC [4]): No | inhibition of tube formation (FIG. 20) (HUVEC [4]; high dose, 100 nM): no activity in tube formation

CC[C@H](C)[C@H](NC(=O)[C@H](CC(N)=O)NC(=O)[C@@H](NC(=O)[C@H](Cc1ccccc1)NC(=O)[C@@H](C)NC(=O)[C@H](Cc1ccccc1)NC(=O)[C@@H]1CCCN1C(=O)[C@H](CCSC)NC(=O)[C@@H](NC(=O)[C@H](CO)NC(=O)[C@H](Cc1ccccc1)NC(=O)[C@H](CCCNC(=N)N)NC(=O)[C@H](CCCNC(=N)N)NC(=O)[C@@H](N)CC(C)C)[C@@H](C)O)[C@@H](C)CC)C(=O)N[C@@H](CC(N)=O)C(=O)N[C@@H](CC(N)=O)C(=O)N[C@H](C(=O)N[C@H](C(=O)N[C@@H](CC(N)=O)C(=O)N[C@@H](Cc1ccccc1)C(N)=O)[C@@H](C)CC)C(C)C [SP2034, LRRFSTMPFdAFININNVINF]
IC50 (HUVEC [1]; 3 h): 0.55 ± 0.37 µM | Activity in Adhesion (HUVEC [1]; HUVEC): Yes | laser-induced choroidal neovascularization [5]: inhibited laser-induced choroidal neovascularization | Activity in Migration (HUVEC [2]): Yes | area of retinal neovascularization in the Rho/VEGF model [6]: inhibited | inhibition of proliferation (HUVEC [3]; HUVEC): improved by two orders of magnitude | Activity in Proliferation (HUVEC [3]; HUVEC): Yes | IC50 (HUVEC [3]; HUVEC, tables 5, 8-10 and text, read-out: IC50 ± 95% CI (μM), proliferation): 0.54 ± 0.19 µM | Activity in Tube formation (HUVEC [4]): Yes

CC[C@H](C)[C@H](NC(=O)[C@H](CC(N)=O)NC(=O)[C@H](CS)NC(=O)[C@H](Cc1ccccc1)NC(=O)[C@H](CCSC)NC(=O)[C@H](Cc1ccccc1)NC(=O)[C@@H]1CCCN1C(=O)[C@H](CCSC)NC(=O)[C@@H](NC(=O)[C@H](CO)NC(=O)[C@H](Cc1ccccc1)NC(=O)[C@H](CCCNC(=N)N)NC(=O)[C@H](CCCNC(=N)N)NC(=O)[C@@H](N)CC(C)C)[C@@H](C)O)C(=O)N[C@@H](CC(N)=O)C(=O)N[C@@H](CC(N)=O)C(=O)N[C@H](C(=O)N[C@@H](CS)C(=O)N[C@@H](CC(N)=O)C(=O)N[C@@H](Cc1ccccc1)C(N)=O)C(C)C [SP2000, reference compound] (H-LRRFSTMPFMFCNINNVCNF-NH2; N-terminus assumed)
Adhesion Inhibition (100 uM) (HUVEC [1]; HUVEC): 95% | suppression of tumor growth (MDA-MB-231 xenograft; MDA-MB-231 xenograft in mice, 10 mg/kg daily): tumor growth was inhibited | microvascular density (MDA-MB-231 xenograft; after completion of the treatment at 21 days): statistically different from one another | MDA-MB-231 xenograft inhibition (MDA-MB-231 xenograft): Active | Migration Inhibition (50 uM) (HUVEC [2]): 80% | IC50 (HUVEC [3]): 15.5 µM | Tube formation Inhibition (100 uM) (HUVEC [4]): Complete

LNRFSTMPF [SP2013, LNRFSTMPF]
Adhesion Inhibition (100 uM) (HUVEC [1]; HUVEC): 0.3% | Activity in Adhesion (HUVEC [1]; HUVEC): No | inhibition of adhesion (HUVEC [1]; HUVEC, concentration not given): absence of activity | Migration Inhibition (50 uM) (HUVEC [2]): Inactive | Activity in Migration (HUVEC [2]): No | inhibition of migration (HUVEC [2]): absence of activity | IC50 (HUVEC [3]): > 100 µM | Activity in Proliferation (HUVEC [3]; HUVEC): No | Proliferation Inhibition (IC50 in uM) (HUVEC [3]; HUVEC, summary tables 2-4, 6, 7): Inactive | Tube formation Inhibition (100 uM) (HUVEC [4]): Inactive | Activity in Tube formation (HUVEC [4]): No

LRRFSTMPFMFTNINV-NH2 [SP2029, LRRFSTMPFMFTNINV]
Adhesion Inhibition (100 uM) (HUVEC [1]; HUVEC): 93.75% | Activity in Adhesion (HUVEC [1]; HUVEC): Yes | Migration Inhibition (50 uM) (HUVEC [2]): 54.13% | Activity in Migration (HUVEC [2]): Yes | inhibition of proliferation (HUVEC [3]; HUVEC): potent activity in inhibiting proliferation | Activity in Proliferation (HUVEC [3]; HUVEC): Yes | Tube formation Inhibition (100 uM) (HUVEC [4]): Complete | Activity in Tube formation (HUVEC [4]): Yes | inhibition of tube formation (HUVEC [4]; concentration not given): Inhibition of tube formation
